ChEMBL document CHEMBL1201862, “PubChem BioAssay data set” (2004)
Values belong to the compound of their own block, whether it stands above or below them. Calls of active or inactive are those of the source.

Legend:
[1] = molecular target: T1, Kappa-type opioid receptor (Homo sapiens, UniProt P41145); assay: kappa opioid receptor blockers, cell-based, luminescence, beta-arrestin, SAR follow-up (AID 2285); type: functional
[2] = molecular target: T2, Delta-type opioid receptor (Homo sapiens, UniProt P41143); assay: DOR agonists, SAR follow-up, image-based (AID 2370); type: functional
[3] = molecular target: T2, Delta-type opioid receptor; assay: DOR antagonists, SAR follow-up, image-based (AID 2357); type: functional
[4] = molecular target: T3, Mu-type opioid receptor (Homo sapiens, UniProt P35372); assay: MOR antagonists, SAR follow-up, image-based (AID 2420); type: functional;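 also: compounds added before stimulation of receptor with agonist DAMGO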
[5] = molecular target: T1, Kappa-type opioid receptor; assay: KOR antagonists by imaging, SAR follow-up, image-based (AID 2348); type: functional
[6] = molecular target: T1, Kappa-type opioid receptor; assay: KOR agonist analogs, imaging readout, SAR follow-up, image-based (AID 2359); type: functional
[7] = molecular target: T3, Mu-type opioid receptor; assay: MOR agonists by imaging, SAR follow-up, image-based (AID 2352); type: functional
[8] = molecular target: ORF 73 (Human herpesvirus 8, UniProt O40947); assay: inhibitors of C-LANA binding to LBS DNA, dose response, biochemical, fluorescence polarization, cherry-picked samples (AID 504725); set-up: species or system Human gammaherpesvirus 8;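 also: fluorescence polarization of a labeled DNA duplex reporting LANA DNA binding; potency is for inhibitors that block LANA binding to the DNA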
[9] = molecular target: Large T antigen (Simian virus 40, UniProt P03070); type: functional, Betapolyomavirus macacae;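 also: Confirmatory-stage PubChem screen for compounds that inhibit SV40 T antigen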
[10] = molecular target: T4, Histone-lysine N-methyltransferase NSD2 (Homo sapiens, UniProt O96028); type: biochemical
T4 sequence (O96028 whole entry): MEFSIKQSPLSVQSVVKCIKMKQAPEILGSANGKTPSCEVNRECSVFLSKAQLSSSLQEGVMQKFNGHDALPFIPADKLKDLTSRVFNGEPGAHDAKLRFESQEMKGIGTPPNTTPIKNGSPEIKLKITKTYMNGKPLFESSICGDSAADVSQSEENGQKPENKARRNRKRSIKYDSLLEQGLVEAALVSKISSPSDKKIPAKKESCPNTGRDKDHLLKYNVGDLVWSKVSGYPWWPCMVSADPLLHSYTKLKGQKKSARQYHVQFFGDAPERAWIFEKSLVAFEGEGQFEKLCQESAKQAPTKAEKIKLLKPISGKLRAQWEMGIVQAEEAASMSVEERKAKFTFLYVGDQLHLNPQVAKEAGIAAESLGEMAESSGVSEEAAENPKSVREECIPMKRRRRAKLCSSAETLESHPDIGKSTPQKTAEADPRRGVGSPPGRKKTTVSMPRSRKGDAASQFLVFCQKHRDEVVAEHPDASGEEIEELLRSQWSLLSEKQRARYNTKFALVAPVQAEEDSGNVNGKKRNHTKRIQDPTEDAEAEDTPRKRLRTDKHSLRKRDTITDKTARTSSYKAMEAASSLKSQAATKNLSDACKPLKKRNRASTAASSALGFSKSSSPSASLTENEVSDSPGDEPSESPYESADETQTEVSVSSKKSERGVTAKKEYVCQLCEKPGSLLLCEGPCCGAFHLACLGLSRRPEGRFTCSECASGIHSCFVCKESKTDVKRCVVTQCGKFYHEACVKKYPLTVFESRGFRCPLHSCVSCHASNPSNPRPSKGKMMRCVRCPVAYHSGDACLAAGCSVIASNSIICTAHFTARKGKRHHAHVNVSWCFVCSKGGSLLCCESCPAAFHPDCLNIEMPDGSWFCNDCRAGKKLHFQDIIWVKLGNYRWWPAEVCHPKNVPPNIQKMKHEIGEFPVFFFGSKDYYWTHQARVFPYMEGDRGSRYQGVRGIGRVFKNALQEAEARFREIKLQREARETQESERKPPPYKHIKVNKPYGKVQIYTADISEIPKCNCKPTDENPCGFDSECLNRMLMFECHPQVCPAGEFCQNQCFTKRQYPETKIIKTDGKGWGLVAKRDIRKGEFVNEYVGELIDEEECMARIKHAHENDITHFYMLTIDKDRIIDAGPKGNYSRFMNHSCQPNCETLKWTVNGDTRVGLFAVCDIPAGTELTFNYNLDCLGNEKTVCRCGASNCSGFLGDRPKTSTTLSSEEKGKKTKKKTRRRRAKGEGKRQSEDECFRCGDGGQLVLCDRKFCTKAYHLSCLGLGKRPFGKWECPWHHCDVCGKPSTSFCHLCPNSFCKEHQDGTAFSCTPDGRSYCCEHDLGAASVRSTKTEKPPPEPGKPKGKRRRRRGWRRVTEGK

[11] = molecular target: T5, Rac GTPase-activating protein 1 (Homo sapiens, UniProt Q9H0H5); assay: MgcRacGAP GTPase-activating activity inhibitors, confirmation, biochemical, ADP Hunter fluorescence, primary and confirmatory (AID 624330); type: functional
T5 sequence (Q9H0H5 whole entry): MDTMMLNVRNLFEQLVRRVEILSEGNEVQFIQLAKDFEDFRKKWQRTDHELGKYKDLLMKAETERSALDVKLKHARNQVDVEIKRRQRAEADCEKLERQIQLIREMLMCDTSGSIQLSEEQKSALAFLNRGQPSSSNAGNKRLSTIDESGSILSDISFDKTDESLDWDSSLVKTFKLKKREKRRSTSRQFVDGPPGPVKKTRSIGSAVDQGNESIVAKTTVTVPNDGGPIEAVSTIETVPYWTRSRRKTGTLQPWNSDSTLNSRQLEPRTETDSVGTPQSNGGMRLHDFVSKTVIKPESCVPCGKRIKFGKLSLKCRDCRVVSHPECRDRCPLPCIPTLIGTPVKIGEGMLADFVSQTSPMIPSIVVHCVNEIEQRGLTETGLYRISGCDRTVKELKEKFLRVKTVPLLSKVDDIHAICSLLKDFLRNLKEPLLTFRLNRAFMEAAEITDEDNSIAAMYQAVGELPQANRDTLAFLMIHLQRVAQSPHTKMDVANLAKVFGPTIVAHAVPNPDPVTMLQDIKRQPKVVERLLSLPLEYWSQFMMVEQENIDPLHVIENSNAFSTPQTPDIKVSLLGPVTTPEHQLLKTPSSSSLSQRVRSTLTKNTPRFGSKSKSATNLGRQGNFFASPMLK

[12] = molecular target: T6, Alkaline phosphatase, tissue-nonspecific isozyme (Homo sapiens, UniProt P05186); assay: TNAP enzyme activators, dose response, selectivity assay for mouse IAP activator project, biochemical, TNAP isozyme, mouse IAP uHTS hits (AID 488880); type: functional
T6 sequence (P05186 whole entry): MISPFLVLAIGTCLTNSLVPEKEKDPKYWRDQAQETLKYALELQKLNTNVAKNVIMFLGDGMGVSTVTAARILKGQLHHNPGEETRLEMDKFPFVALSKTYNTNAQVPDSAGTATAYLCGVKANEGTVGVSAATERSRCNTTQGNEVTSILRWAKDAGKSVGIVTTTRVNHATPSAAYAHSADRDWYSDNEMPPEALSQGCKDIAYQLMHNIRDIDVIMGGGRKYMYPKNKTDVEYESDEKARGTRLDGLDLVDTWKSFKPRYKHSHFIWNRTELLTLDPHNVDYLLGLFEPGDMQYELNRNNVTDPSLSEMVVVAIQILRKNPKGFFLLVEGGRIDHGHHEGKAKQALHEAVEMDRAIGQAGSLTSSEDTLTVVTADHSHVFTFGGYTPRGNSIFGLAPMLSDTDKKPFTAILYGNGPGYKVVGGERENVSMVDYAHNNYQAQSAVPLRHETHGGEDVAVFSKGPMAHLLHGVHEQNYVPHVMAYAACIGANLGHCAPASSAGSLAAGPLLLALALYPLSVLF

[13] = molecular target: Intestinal-type alkaline phosphatase (Homo sapiens, UniProt P09923); assay: activation of human intestinal alkaline phosphatase – biochemical, dose response (AID 488873); type: functional
[14] = molecular target: Intestinal-type alkaline phosphatase (Mus musculus, UniProt P24822); assay: mouse intestinal alkaline phosphatase activators, dose response, biochemical, luminescence, uHTS hits (AID 488783); type: functional
[15] = molecular target: T1, Kappa-type opioid receptor; assay: KOR agonist analogs, arrestin-GFP redistribution, SAR follow-up, imaging, image-based, set 3 (AID 488833); type: functional
[16] = molecular target: T1, Kappa-type opioid receptor; assay: SAR analysis of small molecule agonists of the kappa opioid receptor via a luminescent beta-arrestin assay - Set 3. [Related pubchem assays (depositor defined):AID1777, AID1785, AID1786, AID1966, AID2133, AID2136, AID2284, AID2500]; type: functional
[17] = molecular target: T3, Mu-type opioid receptor; assay: SAR Analysis of Agonists of the MOR Receptor using an Image-Based Assay - Set 3. [Related pubchem assays (depositor defined):AID1777, AID1785, AID1786, AID1966, AID2133, AID2136, AID2284, AID2285, AID2352]; type: functional
[18] = molecular target: T2, Delta-type opioid receptor; assay: SAR Analysis of Agonists of the DOR Receptor using an Image-Based Assay - Set 3. [Related pubchem assays (depositor defined):AID1777, AID1786]; type: functional

T1 sequence (P41145 whole entry): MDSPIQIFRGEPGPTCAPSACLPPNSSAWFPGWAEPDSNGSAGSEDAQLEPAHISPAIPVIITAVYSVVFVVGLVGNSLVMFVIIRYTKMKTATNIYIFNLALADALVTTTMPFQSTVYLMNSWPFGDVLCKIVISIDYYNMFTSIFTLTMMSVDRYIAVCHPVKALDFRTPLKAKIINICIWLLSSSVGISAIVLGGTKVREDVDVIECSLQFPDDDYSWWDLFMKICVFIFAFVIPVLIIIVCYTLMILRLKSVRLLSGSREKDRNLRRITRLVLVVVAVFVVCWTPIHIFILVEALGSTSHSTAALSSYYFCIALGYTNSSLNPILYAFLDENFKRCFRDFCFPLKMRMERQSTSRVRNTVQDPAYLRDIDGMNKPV
T2 sequence (P41143 whole entry): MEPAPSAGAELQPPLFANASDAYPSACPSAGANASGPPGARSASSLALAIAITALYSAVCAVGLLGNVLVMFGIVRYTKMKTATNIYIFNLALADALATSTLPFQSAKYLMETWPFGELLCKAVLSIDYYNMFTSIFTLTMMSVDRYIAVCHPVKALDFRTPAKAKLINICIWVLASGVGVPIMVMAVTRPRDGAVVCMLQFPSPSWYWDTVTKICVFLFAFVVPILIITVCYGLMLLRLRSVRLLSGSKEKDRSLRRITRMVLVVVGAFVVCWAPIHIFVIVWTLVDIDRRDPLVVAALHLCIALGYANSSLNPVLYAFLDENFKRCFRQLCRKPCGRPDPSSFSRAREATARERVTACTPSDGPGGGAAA
T3 sequence (P35372 whole entry): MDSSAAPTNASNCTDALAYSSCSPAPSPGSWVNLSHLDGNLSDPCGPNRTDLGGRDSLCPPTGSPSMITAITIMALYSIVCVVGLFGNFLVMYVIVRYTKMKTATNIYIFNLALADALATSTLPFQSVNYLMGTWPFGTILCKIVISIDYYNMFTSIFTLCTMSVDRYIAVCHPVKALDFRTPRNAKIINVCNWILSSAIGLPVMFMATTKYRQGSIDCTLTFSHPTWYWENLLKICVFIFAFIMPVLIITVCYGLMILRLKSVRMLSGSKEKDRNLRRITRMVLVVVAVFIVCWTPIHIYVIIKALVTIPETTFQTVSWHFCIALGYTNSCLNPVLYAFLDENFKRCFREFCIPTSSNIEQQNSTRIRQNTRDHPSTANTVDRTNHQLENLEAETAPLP
Sequence of Intestinal-type alkaline phosphatase (Mus musculus, UniProt P24822) (P24822 whole entry): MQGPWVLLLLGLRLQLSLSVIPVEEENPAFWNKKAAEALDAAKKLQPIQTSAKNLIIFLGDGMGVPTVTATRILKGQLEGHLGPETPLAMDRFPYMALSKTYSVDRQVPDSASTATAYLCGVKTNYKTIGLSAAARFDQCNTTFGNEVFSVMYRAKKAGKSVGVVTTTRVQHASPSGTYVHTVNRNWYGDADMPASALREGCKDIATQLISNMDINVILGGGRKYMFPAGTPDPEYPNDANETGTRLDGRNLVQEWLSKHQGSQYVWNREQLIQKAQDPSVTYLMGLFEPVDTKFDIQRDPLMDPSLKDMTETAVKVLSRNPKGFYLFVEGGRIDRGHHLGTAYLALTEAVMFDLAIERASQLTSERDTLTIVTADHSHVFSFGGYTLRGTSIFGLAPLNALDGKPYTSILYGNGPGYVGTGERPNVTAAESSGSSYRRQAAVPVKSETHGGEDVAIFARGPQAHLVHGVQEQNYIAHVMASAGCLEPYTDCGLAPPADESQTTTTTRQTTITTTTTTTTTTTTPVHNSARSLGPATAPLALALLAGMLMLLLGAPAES
Sequence of Intestinal-type alkaline phosphatase (Homo sapiens, UniProt P09923) (P09923 whole entry): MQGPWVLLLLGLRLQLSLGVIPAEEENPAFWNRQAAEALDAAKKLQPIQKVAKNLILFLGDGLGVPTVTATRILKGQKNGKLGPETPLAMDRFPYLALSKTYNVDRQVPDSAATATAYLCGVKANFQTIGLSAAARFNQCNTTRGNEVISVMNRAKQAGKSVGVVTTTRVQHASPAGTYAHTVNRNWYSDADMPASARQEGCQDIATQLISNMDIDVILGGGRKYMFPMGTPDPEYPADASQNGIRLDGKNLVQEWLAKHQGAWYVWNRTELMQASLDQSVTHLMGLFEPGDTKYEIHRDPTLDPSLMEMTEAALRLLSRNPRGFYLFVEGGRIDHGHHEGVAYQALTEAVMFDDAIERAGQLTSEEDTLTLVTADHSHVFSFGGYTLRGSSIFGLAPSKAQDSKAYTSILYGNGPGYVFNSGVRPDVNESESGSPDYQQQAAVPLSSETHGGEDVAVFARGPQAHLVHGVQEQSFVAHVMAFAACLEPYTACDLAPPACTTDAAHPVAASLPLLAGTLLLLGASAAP
Sequence of ORF 73 (O40947 whole entry): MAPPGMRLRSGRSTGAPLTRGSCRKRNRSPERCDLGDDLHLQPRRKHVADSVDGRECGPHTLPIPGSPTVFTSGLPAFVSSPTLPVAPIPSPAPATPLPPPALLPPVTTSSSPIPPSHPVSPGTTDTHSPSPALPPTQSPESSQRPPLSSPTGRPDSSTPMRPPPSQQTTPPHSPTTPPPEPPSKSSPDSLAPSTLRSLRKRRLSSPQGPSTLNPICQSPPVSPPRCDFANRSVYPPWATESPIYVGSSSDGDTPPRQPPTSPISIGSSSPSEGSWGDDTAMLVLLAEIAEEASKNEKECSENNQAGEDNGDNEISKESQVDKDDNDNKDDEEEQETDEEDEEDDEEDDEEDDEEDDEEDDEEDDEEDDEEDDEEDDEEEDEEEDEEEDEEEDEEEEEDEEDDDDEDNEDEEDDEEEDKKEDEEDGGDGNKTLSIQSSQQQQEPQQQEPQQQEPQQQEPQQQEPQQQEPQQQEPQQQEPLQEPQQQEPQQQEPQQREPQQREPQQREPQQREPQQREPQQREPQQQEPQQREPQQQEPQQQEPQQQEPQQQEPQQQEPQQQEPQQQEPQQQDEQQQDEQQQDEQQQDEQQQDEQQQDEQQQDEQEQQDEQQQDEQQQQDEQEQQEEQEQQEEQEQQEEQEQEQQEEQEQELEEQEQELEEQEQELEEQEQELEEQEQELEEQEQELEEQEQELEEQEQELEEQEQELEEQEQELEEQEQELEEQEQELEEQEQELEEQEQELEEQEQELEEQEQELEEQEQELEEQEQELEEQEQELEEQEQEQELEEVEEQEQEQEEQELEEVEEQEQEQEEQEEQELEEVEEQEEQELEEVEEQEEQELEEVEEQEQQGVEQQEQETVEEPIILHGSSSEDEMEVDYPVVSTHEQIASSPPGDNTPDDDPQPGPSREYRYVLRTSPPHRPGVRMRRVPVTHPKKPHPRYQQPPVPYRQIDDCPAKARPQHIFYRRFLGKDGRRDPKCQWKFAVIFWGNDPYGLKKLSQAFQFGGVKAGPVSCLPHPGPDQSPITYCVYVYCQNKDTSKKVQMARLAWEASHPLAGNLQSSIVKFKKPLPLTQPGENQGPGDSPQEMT
Sequence of Large T antigen (P03070 whole entry): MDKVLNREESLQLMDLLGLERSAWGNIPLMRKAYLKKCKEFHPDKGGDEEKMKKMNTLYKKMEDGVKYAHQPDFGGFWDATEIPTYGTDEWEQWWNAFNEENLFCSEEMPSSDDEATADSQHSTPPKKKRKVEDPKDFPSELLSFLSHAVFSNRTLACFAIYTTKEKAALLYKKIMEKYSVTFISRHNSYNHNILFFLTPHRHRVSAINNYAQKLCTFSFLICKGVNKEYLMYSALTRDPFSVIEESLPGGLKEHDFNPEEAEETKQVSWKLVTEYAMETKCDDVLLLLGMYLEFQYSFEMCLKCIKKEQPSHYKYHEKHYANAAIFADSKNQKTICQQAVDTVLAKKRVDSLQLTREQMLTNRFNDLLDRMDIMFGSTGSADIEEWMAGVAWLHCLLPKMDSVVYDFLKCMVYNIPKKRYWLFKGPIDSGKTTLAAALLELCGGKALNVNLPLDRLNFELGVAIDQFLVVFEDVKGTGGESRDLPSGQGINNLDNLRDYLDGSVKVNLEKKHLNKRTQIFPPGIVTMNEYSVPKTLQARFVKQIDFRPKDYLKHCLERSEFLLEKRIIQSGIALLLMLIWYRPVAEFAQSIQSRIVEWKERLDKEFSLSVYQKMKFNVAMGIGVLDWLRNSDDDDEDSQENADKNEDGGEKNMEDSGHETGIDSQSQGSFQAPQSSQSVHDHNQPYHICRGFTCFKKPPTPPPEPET

IC50 [1]: 4.32 µM (active) | EC50 [2]: > 32 µM (inactive) | IC50 [3]: > 32 µM (inactive) | IC50 [4]: > 32 µM (inactive) | IC50 [5]: 15.3 µM (inactive) | EC50 [6]: > 32 µM (inactive) | EC50 [7]: > 32 µM (inactive)
SMILES: COc1ccc(N2CCN(CCCNC(=O)Cn3c(=O)c4cccn4c4ccccc43)CC2)cc1

AC50 [8]: 161 µM (active) | IC50 [9]: 7.22 µM (active) | AC50 [10]: 3.26 µM (active) | IC50 [11]: 66 µM (active) | EC50 [12]: 9.2 µM (active) | EC50 [13]: 9.7 µM (active) | EC50 [14]: 100 µM (inactive)
SMILES: N=C1/C(=C/c2ccc(O)c(O)c2)C(=O)N=C2SC(CC(=O)N3CCCC3)=NN12

EC50 [15]: > 32 µM (inactive) | EC50 [16]: 15.3 µM (inactive) | EC50 [17]: > 32 µM (inactive) | EC50 [18]: > 64 µM (inactive)
SMILES: COc1cccc(CSc2nnc(-c3ccccn3)n2Cc2ccco2)c1
